Test results from PMC12305494, “Discovery of PXR Antagonist MI891 and PXR Degrader MI1013 and Their Roles in Hepatic Gene Regulation” (Journal of Medicinal Chemistry, 2025).

Legend:
[1] = Plasma stability, human plasma; assay type: in vitro ADME; settings: up to 120 min, read-out: Plasma stability, t1/2 (min), human
[2] = test system: ERα/β; assay: ERα/β agonist reporter assay; assay type: cell-based; settings: 10 µM MI891
Protocol: For the farnesoid X receptor (FXR) luciferase gene reporter assay, the full-length expression vector was paired with pFXRE-luc luciferase construct. The p1A1-luc construct was used in the aryl hydrocarbon receptor (AhR) assays with pRL-TK for normalization. Gal4-LXR-α/β, and Gal4-PPAR-γ constructs were used with the pGAL4 UAS-luc construct. For the VDR assay, expression vector pSG5-hVDR together with pVDRE-luc constructs was used. Firefly and Renilla luciferase activities were analyzed using a Dual reporter assay (Promega). For the nuclear receptor assays, prototype ligands were used at the following concentrations: Calcitriol for VDR (100 nM), GW3965 for LXRα and LXRβ (10 μM), 6-OCA for FXR (1 μM), fenofibrate for PPARα (10 μM), estradiol for ERα and β (10 μM), rosiglitazone for PPARγ (10 μM), 3-MC for AhR (5 μM), and TCPOBOP for mCAR (10 μM). Detailed descriptions and protocols are detailed in our recent publication. , […]
hydrophobic interactions. (F) Superimposed diagram of PXR bound with agonist (SJPYT-328) and antagonists (MI891 and SJPYT-331) to differentiate the agonist and antagonist interactions with helix 12 (H12). The interaction of the agonist with PXR residue (L428) is circled. (G) Extended nuclear receptor selectivity profile. […]

[3] = molecular target: T1, GSPT1 (Homo sapiens, UniProt P15170); assay: Western blot of GSPT1 in HepaRG cells; assay type: cell-based; settings: 24 h
T1 construct: GSPT1 protein expression in HepaRG cells treated with different concentrations of MI1013 and MI1155 for 24 h; endogenous in cells; host or cells: HepaRG
Protocol: The harvested HepaRG cells were lysed in RIPA lysis buffer (Cat. no 89900, Thermo Scientific) containing Halt protease inhibitor cocktail inhibitors (Thermo Scientific). Protein concentration was measured using the Pierce BCA Protein Assay Kit (Cat. no. 23225, Thermo Scientific), samples were diluted in 4 × Laemmli sample buffer (Cat. no. 1610747, BioRad) supplemented with mercaptoethanol and heated at 95 °C for 5 min. Equal amounts of protein were loaded in 4–20% Mini-PROTEAN TGX Stain-Free Protein Gels (12 well. cat. no. 4561095 or 15 well, cat. no. 4568096, Bio-Rad), electrophorised, and transferred onto Trans-Blot Turbo Midi-size PVDF Membrane (cat. no. 1704273, Bio-Rad), and blocked with EveryBlot Blocking buffer for 10 min (cat. no. 12010020, Bio-Rad). […] Chemiluminescence signals were detected using SuperSignal West Femto Maximum Sensitivity Substrate (cat. no. 34096, Thermo Scientific) and visualized by the ChemiDoc MP Imaging system (Universal Hood III, #731BR02821, Bio-Rad), and the bands were quantified using β-actin (1:2000, recombinant rabbit conjugated monoclonal antibody (JF53-10), cat. no. MA5-32540, Invitrogen) as loading control with ImageJ (version 1.54g) software.

[4] = molecular target: T2, PXR (Homo sapiens, UniProt O75469); settings: HepG2, rifampicin 1 or 5 μM
T2 sequence (O75469 1-434): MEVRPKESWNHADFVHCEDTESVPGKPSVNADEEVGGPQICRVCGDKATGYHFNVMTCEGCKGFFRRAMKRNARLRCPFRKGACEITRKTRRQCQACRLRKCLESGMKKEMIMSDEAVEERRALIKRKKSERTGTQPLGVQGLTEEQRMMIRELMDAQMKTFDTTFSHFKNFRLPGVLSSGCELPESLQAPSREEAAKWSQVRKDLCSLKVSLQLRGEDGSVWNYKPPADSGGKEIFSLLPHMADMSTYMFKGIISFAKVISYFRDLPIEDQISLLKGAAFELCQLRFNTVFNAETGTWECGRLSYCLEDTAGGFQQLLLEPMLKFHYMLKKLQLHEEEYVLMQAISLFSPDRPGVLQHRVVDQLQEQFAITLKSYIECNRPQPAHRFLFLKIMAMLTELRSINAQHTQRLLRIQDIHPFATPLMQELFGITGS
Protocol: The PXR activity was assessed as the PXR-dependent transcriptional activation using the construct. […] The control vector pRL-TK (Promega) constitutively expresses Renilla luciferase. […] Transient transfection experiments followed published protocols used in our laboratory and described before. , Luciferase reporter assays were conducted to evaluate interactions with PXR or CAR and their variants in HepG2, or COS-1. Cells were seeded at a density of 40,000 cells/cm^2 in 48-well plates (ThermoFisher Scientific) and maintained at 37 °C in a humidified atmosphere with 5% CO2. […] Following seeding, HepG2 cells were transfected with 150 ng/well of a luciferase reporter construct and 100 ng/well of a nuclear receptor expression vector using Lipofectamine 3000 (ThermoFisher Scientific) and with pRL-TK (30 ng/well) serving as the normalization control. After 24 h, cells were treated with test compounds for 24 h before cell lysis and subsequent firefly and Renilla luciferase activity analysis using the Dual-Glo Luciferase Assay System (Promega). […] The activities of test compounds were normalized to the respective controls to determine % activation or inhibition.

T1 sequence (Q96SW2 whole entry partner): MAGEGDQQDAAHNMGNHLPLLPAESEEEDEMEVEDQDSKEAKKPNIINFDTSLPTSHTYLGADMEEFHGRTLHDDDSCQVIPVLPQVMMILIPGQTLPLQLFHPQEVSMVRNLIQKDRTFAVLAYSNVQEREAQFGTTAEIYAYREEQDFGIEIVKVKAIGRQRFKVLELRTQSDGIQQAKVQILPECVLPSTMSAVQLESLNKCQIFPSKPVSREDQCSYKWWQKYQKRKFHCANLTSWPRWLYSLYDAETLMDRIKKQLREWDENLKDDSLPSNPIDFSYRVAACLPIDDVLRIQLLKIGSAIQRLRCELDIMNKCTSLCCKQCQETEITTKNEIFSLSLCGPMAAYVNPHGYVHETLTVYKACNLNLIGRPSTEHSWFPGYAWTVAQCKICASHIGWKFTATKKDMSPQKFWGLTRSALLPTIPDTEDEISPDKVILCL
T1 sequence (P15170 whole entry): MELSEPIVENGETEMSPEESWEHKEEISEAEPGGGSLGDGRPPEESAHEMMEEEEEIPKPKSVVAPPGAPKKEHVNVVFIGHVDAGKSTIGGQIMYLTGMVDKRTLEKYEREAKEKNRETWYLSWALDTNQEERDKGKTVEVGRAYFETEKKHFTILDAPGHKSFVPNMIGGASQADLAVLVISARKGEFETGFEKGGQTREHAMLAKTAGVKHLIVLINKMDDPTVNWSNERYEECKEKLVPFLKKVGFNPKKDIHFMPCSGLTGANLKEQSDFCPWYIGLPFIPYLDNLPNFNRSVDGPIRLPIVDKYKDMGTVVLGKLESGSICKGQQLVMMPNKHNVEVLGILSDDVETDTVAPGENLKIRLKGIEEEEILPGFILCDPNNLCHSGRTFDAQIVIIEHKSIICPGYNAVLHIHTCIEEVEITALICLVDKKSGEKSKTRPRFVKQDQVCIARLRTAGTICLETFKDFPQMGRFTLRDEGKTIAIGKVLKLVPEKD

half-life [1] | GSPT1 degradation [3] | Compound | agonistic effect on ERα/β [2] | inhibition of PXR activation by rifampicin [4]
> 120 min | – | NC(=O)c1cc(Cn2cc(-c3c(-c4ccc(Cl)cc4)nc4c(F)cc(F)cn34)nn2)ccc1Cl [Compound 11, 2-Chloro-5-((4-(2-(4-chlorophenyl)-6,8-difluoroimidazo[1,2-a]pyridin-3-yl)-1H-1,2,3-triazol-1-yl)methyl)-benzamide] | no agonistic effects | –
– | does not degrade | N-(4-((1-(2,5-dimethoxyphenyl)-5-methyl-1H-1,2,3-triazol-4-yl)sulfonyl)phenyl)-3-(2-(2-(2-(4-(((2-(2,6-dioxopiperidin-3-yl)-1,3-dioxoisoindolin-4-yl)amino)methyl)-1H-1,2,3-triazol-1-yl)ethoxy)ethoxy)ethoxy)propenamide [Compound 36] | – | concentration-dependent inhibition of PXR activation by rifampicin
